The source made the active and inactive calls. The rule behind the calls is not given here.
Columns and labels:
Conditions in all cases: dose 2.55 µmol
[1] = Binding affinity to Gallium ion assessed as performance ratio ratio by measuring product of accounting ratio and retention ratio at 2.55 umol by immobilized metal-ion affinity chromatography
[2] = Binding affinity to Nickel cation assessed as performance ratio ratio by measuring product of accounting ratio and retention ratio at 2.55 umol by immobilized metal-ion affinity chromatography
[3] = Binding affinity to cupric ion assessed as performance ratio ratio by measuring product of accounting ratio and retention ratio at 2.55 umol by immobilized metal-ion affinity chromatography
[4] = Binding affinity to gallium ion assessed as accounting ratio by measuring total compound detected/total compound adsorbed at 2.55 umol by immobilized metal-ion affinity chromatography
[5] = Binding affinity to zinc ion assessed as accounting ratio by measuring total compound detected/total compound adsorbed at 2.55 umol by immobilized metal-ion affinity chromatography
[6] = Binding affinity to cupric ion assessed as accounting ratio by measuring total compound detected/total compound adsorbed at 2.55 umol by immobilized metal-ion affinity chromatography
[7] = Binding affinity to ferric ion assessed as accounting ratio by measuring total compound detected/total compound adsorbed at 2.55 umol by immobilized metal-ion affinity chromatography
[8] = Binding affinity to Zinc ion assessed as retention ratio by measuring compound detected in elution fraction/total compound detected at 2.55 umol by immobilized metal-ion affinity chromatography
[9] = Binding affinity to Nickel cation assessed as retention ratio by measuring compound detected in elution fraction/total compound detected at 2.55 umol by immobilized metal-ion affinity chromatography
[10] = Binding affinity to Gallium ion assessed as retention ratio by measuring compound detected in elution fraction/total compound detected at 2.55 umol by immobilized metal-ion affinity chromatography
[11] = Binding affinity to Ferric ion assessed as performance ratio ratio by measuring product of accounting ratio and retention ratio at 2.55 umol by immobilized metal-ion affinity chromatography
[12] = Binding affinity to Zinc ion assessed as performance ratio ratio by measuring product of accounting ratio and retention ratio at 2.55 umol by immobilized metal-ion affinity chromatography
[13] = Binding affinity to Nickel cation assessed as accounting ratio by measuring total compound detected/total compound adsorbed at 2.55 umol by immobilized metal-ion affinity chromatography
[14] = Binding affinity to Ferric ion assessed as retention ratio by measuring compound detected in elution fraction/total compound detected at 2.55 umol by immobilized metal-ion affinity chromatography
[15] = Binding affinity to cupric ion assessed as retention ratio by measuring compound detected in elution fraction/total compound detected at 2.55 umol by immobilized metal-ion affinity chromatography
[16] = Binding affinity to Zinc ion at 2.55 umol in presence of DTT by immobilized metal-ion affinity chromatography

Structure (SMILES) | Ratio [1] | Ratio [2] | Ratio [3] | Ratio [4] | Ratio [5] | Ratio [6] | Ratio [7] | Ratio [8] | Ratio [9] | Ratio [10] | Ratio [11] | Ratio [12] | Ratio [13] | Ratio [14] | Ratio [15] | Activity [16]
CC1(C)Cc2c(-c3ccccc3)c(-c3ccc(Cl)cc3)c(CC(=O)O)n2C1 | 0.06 | 0.03 | 0 | 1.08 | 1.05 | 1.03 | 0.97 | 0.03 | 0.03 | 0.06 | 0.37 | 0.03 | 1.03 | 0.39 | 0 | 
Cc1[nH]c2ccccc2c1CCNCc1ccc(/C=C/C(=O)NO)cc1 | 0 | 0.84 | 0.25 | 0 | 0.7 | 0.25 | 0.03 | 1 | 1 | 0 | 0.03 | 0.7 | 0.84 | 1 | 1 | 
O=c1cccccc1O | 0 | 0.7 | 1.26 | 0 | 0.97 | 1.26 | 0 | 1 | 1 | 0 | 0 | 0.97 | 0.7 | 0 | 1 | 
CC(=O)Nc1ccc(C(=O)Nc2ccccc2N)cc1 | 0 | 0.01 | 0 | 0.99 | 1.01 | 0.99 | 1.01 | 0 | 0.01 | 0 | 0 | 0 | 1 | 0 | 0 | 
Nc1ccccc1NC(=O)c1ccc(CNC(=O)OCc2cccnc2)cc1 | 0.01 | 0.21 | 0.01 | 0.98 | 0.83 | 0.59 | 0.99 | 0.01 | 0.6 | 0.01 | 0 | 0.01 | 0.35 | 0 | 0.02 | 
C[C@H](CS)C(=O)N1CCC[C@H]1C(=O)O | 0 | 0 | 0 | 0 | 1.17 | 0 | 0 | 1 | 0 | 0 | 0 | 1.17 | 0 | 0 | 0 | 
Cc1ccc(Cl)c(Nc2ccccc2C(=O)O)c1Cl | 0 | 0 | 0 | 1.01 | 0.97 | 1.05 | 0.99 | 0 | 0 | 0 | 0 | 0 | 0.96 | 0 | 0 | 
O=C(/C=C/c1cccc(S(=O)(=O)Nc2ccccc2)c1)NO | 0.23 | 1.08 | 0.13 | 0.23 | 1.21 | 0.13 | 0 | 1 | 1 | 1 | 0 | 1.21 | 1.08 | 0 | 1 | 
O=C(N[C@H]1CCS[C@H]2CCC[C@@H](C(=O)O)N2C1=O)[C@H](Cc1ccccc1)SS[C@@H](Cc1ccccc1)C(=O)N[C@H]1CCS[C@H]2CCC[C@@H](C(=O)O)N2C1=O |  |  |  |  |  |  |  |  |  |  |  |  |  |  |  | inactive
C[C@H](CSS[C@@H](Cc1ccccc1)C(=O)N[C@H]1CCS[C@H]2CCC[C@@H](C(=O)O)N2C1=O)C(=O)N1CCC[C@H]1C(=O)O |  |  |  |  |  |  |  |  |  |  |  |  |  |  |  | inactive
COc1c(N2C[C@@H]3CCCN[C@@H]3C2)c(F)cc2c(=O)c(C(=O)O)cn(C3CC3)c12 | 0.02 | 0.89 | 0.24 | 0.16 | 1.05 | 0.25 | 0.21 | 1 | 1 | 0.14 | 0.15 | 1.05 | 0.89 | 0.73 | 0.95 | 
Nc1ccc(C(=O)O)c(O)c1 | 0.52 | 0 | 0 | 0.69 | 0.87 | 0.87 | 0.15 | 0 | 0 | 0.74 | 0.08 | 0 | 0.83 | 0.51 | 0 | 
C[C@H](CSSC[C@@H](C)C(=O)N1CCC[C@H]1C(=O)O)C(=O)N1CCCC1C(=O)O (stereo partly drawn) |  |  |  |  |  |  |  |  |  |  |  |  |  |  |  | inactive
O=C(O)c1cc(/N=N/c2ccc(S(=O)(=O)Nc3ccccn3)cc2)ccc1O | 0.82 | 0.89 | 0.63 | 0.83 | 0.61 | 1 | 0.79 | 0.79 | 1 | 0.99 | 0.79 | 0.48 | 0.89 | 1 | 0.63 | 
C[C@H](CSC(=O)c1ccccc1)C(=O)N1C[C@@H](Sc2ccccc2)C[C@H]1C(=O)O | 0.01 | 0.01 | 0 | 1.43 | 1.4 | 1.51 | 1.46 | 0.01 | 0.01 | 0.01 | 0 | 0.01 | 1.29 | 0 | 0 | 
O=C(N[C@H]1CCS[C@H]2CCC[C@@H](C(=O)O)N2C1=O)[C@@H](S)Cc1ccccc1 | 0 | 0.19 | 0 | 0 | 1.43 | 0 | 0 | 1 | 1 | 0 | 0 | 1.43 | 0.19 | 0 | 0 | 
C[C@H](N[C@@H](CCc1ccccc1)C(=O)O)C(=O)N1CCC[C@H]1C(=O)O | 0 | 0 | 0 | 1 | 0.98 | 0.99 | 1.02 | 0.01 | 0 | 0 | 0 | 0.01 | 0.81 | 0 | 0 | 
NCCCC[C@H](N[C@@H](CCc1ccccc1)C(=O)O)C(=O)N1CCC[C@H]1C(=O)O | 0 | 0 | 0 | 0.93 | 0.89 | 0.88 | 0.9 | 0 | 0 | 0 | 0 | 0 | 0.72 | 0 | 0 | 
O=C(CCCCCCC(=O)Nc1ccccc1)NO | 0.41 | 1.14 | 0.08 | 0.41 | 1.19 | 0.14 | 0 | 1 | 1 | 1 | 0 | 1.19 | 1.14 | 0 | 0.61 | 
